# Earlier results, collected in US20090023644A1 (priority 2004, published 2009).
# Read-outs that look alike come from different tables or passages of the source.
# Assays:
# [1] = 8 ng/kg/min IV infusion for 8 hours
# [2] = 600 ng/min
# [3] = IV infusion 10 or 20 minutes at 0.8, 3.2 or 16 ng/kg/min
substance,measurement,setting,value
Calcitonin gene-related peptide [CGRP],cardiac output,[3],increase
same,systemic vascular resistance,[3],decreased
same,tachycardia,[3],no tachycardia observed
same,type of vasodilator behaviour,at lower doses,pure arteriolar vasodilator
same,type of vasodilator behaviour,at the higher dose,mixed vasodilator
same,cardiac output,[1],increased
same,pulmonary and systemic arterial pressure,[1],decreased
same,time to loss of hemodynamic effects after stopping CGRP infusion,[1],≤ 30 min
same,vascular resistance,[1],decreased
same,glomerular filtration,[1]; during treatment,increased
same,renal blood flow,[1]; during treatment,increased
same,"discontinuation of infusion due to nausea, diarrhea, and/or severe facial flushing",[2]; 48-hour continuous IV infusion,discontinued after 28 hours in 3 out of the 6 patients
same,hemodynamic functions such as left ventricular function,[2]; pulsed therapy,improve
same,unfavorable side effects,[2]; pulsed therapy,tachycardia and neurohumoral response were also observed
same,tolerability,[2]; pulsed therapy (2-8 hour infusions for two consecutive days),well tolerated
